Among the data in patent publication US20100168421A1, “A NEW PEPTIDE DEFORMYLASE INHIBITOR COMPOUND AND MANUFACTURING PROCESS THEREOF” (priority 2007, published 2010) are MIC values, retold here.

Common to all, as to format: cell-based
For assay [1], the system named is Streptococcus Pneumoniae Pen S. Nature of the assay: MIC microdilution, S. Pneumoniae Pen S. To be noted: read-out: MIC Streptococcus Pneumoniae Pen S. The procedure: (§1) Minimum inhibitory concentrations (MICs) were determined using the microdilution method in 96-well format plates. Each of the compounds of Examples was dissolved in dimethyl sulfoxide to a concentration of 2 mg/mL and stored at 4° C. until used. They were diluted in Mueller-Hinton Broth (MHB) and used for MIC determination. The range of concentrations tested was […] final concentration using a two-fold dilution system. Plates were incubated at 37° C. and MIC were recorded after 24 hours of incubation for bacteria.
(§2) Linezolid and vancomycin were used as standard antibiotics, respectively.

The test system of assay [2] is Vancomycin-resistant Enterococcus faecalis. Nature of the assay: MIC microdilution, VR E. faecalis. The following applies: read-out: MIC Vancomycin-resistant Enterococcus faecalis. The procedure: as §1, §2
Background: In broth dilution the organism is exposed to a series of concentrations in liquid medium.

Assay [3] has as its system Vancomycin-resistant Enterococcus faecium. Nature of the assay: MIC microdilution, VR E. faecium. To be noted: read-out: MIC Vancomycin-resistant Enterococcus faecium. The procedure:
as §1, §2

Another assay relates to Streptococcus pyogenes. Put plainly: MIC microdilution, S. pyogenes. To be noted: read-out: MIC Streptococcus pyogenes. Here is the method: as §1, §2
For assay [4], the system named is Streptococcus Pneumoniae Pen NS. Put plainly: MIC microdilution, S. Pneumoniae Pen NS. The following applies: read-out: MIC Streptococcus Pneumoniae Pen NS. The procedure:
as §1, §2

Setting [5] is: microdilution, Mueller-Hinton Broth, 37° C., 24 hours.

Values after ≈ are worked out from the molar mass of the structure shown. Read-outs that look alike come from different tables or passages of the source.

Turning to `COc1ccc(NC2CCN(C(=O)[C@@H](NC(=O)[C@H](CC3CCCC3)CN(O)C=O)C(C)(C)C)CC2)c(OC)c1` [Example 24, (R)-2-Cyclopentylmethyl-N-{(S)-1-[4-(2,4-dimethoxy-phenylamino)-piperidine-1-carbonyl]-2,2-dimethyl-propyl}-3-(formyl-hydroxy-amino)-propionamide], the MIC in assay [1] (setting [5]) stood at 0.2 mg/L (≈ 0.366 µM); in assay [2] (setting [5]) it was 6.3 mg/L (≈ 11.5 µM); in assay [3] (setting [5]), 0.8 mg/L (≈ 1.46 µM); in the assay on Streptococcus pyogenes (setting [5]), 0.1 mg/L (≈ 0.183 µM); in assay [4] (setting [5]), 0.4 mg/L (≈ 0.732 µM).

In the case of `COC(=O)c1ccc(CNC2CCN(C(=O)[C@@H](NC(=O)[C@H](CC3CCCC3)CN(O)C=O)C(C)(C)C)CC2)cc1` [Example 7, 4-[(1-{(S)-2-[(R)-2-Cyclopentylmethyl-3-(formyl-hydroxy-amino)-propionylamino]-3,3-dimethyl-butyryl}-piperidin-4-ylamino)-methyl]-benzoic acid methyl ester], the MIC in assay [1] (setting [5]) was determined as 0.4 mg/L (≈ 0.716 µM); in assay [2] (setting [5]), 6.3 mg/L (≈ 11.3 µM); in assay [3] (setting [5]), 3.1 mg/L (≈ 5.55 µM); in the assay on Streptococcus pyogenes (setting [5]) it was 0.8 mg/L (≈ 1.43 µM); in assay [4] (setting [5]) it was 1.6 mg/L (≈ 2.86 µM).

`CC(C)(C)[C@H](NC(=O)[C@H](CC1CCCC1)CN(O)C=O)C(=O)N1CCC(Nc2ccccc2)CC1` [Example 15, (R)-2-Cyclopentylmethyl-N-[(S)-2,2-dimethyl-1-(4-phenylamino-piperidine-1-carbonyl)-propyl]-3-(formyl-hydroxy-amino)-propionamide]: the MIC was determined as 0.1 mg/L (≈ 0.205 µM) in assay [1] (24 h); 1.6 mg/L (≈ 3.29 µM) in assay [2] (24 h); 0.4 mg/L (≈ 0.822 µM) in assay [3] (24 h); 0.1 mg/L (≈ 0.205 µM) in the assay with Streptococcus pyogenes (24 h); 0.4 mg/L (≈ 0.822 µM) in assay [4] (24 h).

`COc1ccc(NC2CCN(C(=O)[C@@H](NC(=O)[C@H](CC3CCCC3)CN(O)C=O)C(C)(C)C)CC2)cc1` [Example 19, (R)-2-Cyclopentylmethyl-3-(formyl-hydroxy-amino)-N-{(S)-1-[4-(4-methoxy-phenylamino)-piperidine-1-carbonyl]-2,2-dimethyl-propyl}-propionamide]: the MIC in assay [1] (setting [5]) was determined as 0.4 mg/L (≈ 0.774 µM); in assay [2] (setting [5]), 3.1 mg/L (≈ 6 µM); in assay [3] (setting [5]), 1.6 mg/L (≈ 3.1 µM); with Streptococcus pyogenes (setting [5]), 0.2 mg/L (≈ 0.387 µM); in assay [4] (setting [5]), 0.2 mg/L (≈ 0.387 µM).

For the molecule `CC(C)(C)[C@H](NC(=O)[C@H](CC1CCCC1)CN(O)C=O)C(=O)N1CCC(NCc2cc(F)c(F)cc2F)CC1` [Example 14, (R)-2-Cyclopentylmethyl-N-{(S)-2,2-dimethyl-1-[4-(2,4,5-trifluoro-benzylamino)-piperidine-1-carbonyl]-propyl}-3-(formyl-hydroxy-amino)-propionamide], the MIC amounted to 0.1 mg/L (≈ 0.18 µM) in assay [1] (setting [5]); 1.6 mg/L (≈ 2.88 µM) in assay [2] (setting [5]); 0.2 mg/L (≈ 0.361 µM) in assay [3] (setting [5]); 0.1 mg/L (≈ 0.18 µM) in the assay with Streptococcus pyogenes (setting [5]); 0.4 mg/L (≈ 0.721 µM) in assay [4] (setting [5]).

With `CC(C)(C)[C@H](NC(=O)[C@H](CC1CCCC1)CN(O)C=O)C(=O)N1CCC(NCc2ccc(C#N)cc2)CC1` [Example 3, (R)-N-{(S)-1-[4-(4-Cyano-benzylamino)-piperidine-1-carbonyl]-2,2-dimethyl-propyl}-2-cyclopentylmethyl-3-(formyl-hydroxy-amino)-propionamide], the MIC in assay [1] (setting [5]) was 0.1 mg/L (≈ 0.19 µM); in assay [2] (setting [5]) it was 0.8 mg/L (≈ 1.52 µM); in assay [3] (setting [5]) it was 0.4 mg/L (≈ 0.761 µM); in the assay with Streptococcus pyogenes (setting [5]) it was 0.2 mg/L (≈ 0.38 µM); in assay [4] (setting [5]), 0.4 mg/L (≈ 0.761 µM).

As for `CN[C@H](CC(C)C)C(=O)N[C@H]1C(=O)N[C@@H](CC(N)=O)C(=O)N[C@H]2C(=O)N[C@H]3C(=O)N[C@H](C(=O)N[C@H](C(=O)O)c4cc(O)cc(O)c4-c4cc3ccc4O)[C@H](O)c3ccc(c(Cl)c3)Oc3cc2cc(c3O[C@@H]2O[C@H](CO)[C@@H](O)[C@H](O)[C@H]2O[C@H]2C[C@](C)(N)[C@H](O)[C@H](C)O2)Oc2ccc(cc2Cl)[C@H]1O` [Vancomycin, reference compound], the MIC in assay [1] (24 h) was 0.2 mg/L (≈ 0.138 µM); in assay [2] (24 h), above 50 mg/L; in assay [3] (24 h), above 50 mg/L; in the assay on Streptococcus pyogenes (24 h), 0.4 mg/L (≈ 0.276 µM); in assay [4] (24 h), 0.4 mg/L (≈ 0.276 µM).

As for `CC(C)(C)[C@H](NC(=O)[C@H](CC1CCCC1)CN(O)C=O)C(=O)N1CCC(Nc2ccc(F)cc2F)CC1` [Example 23, (R)-2-Cyclopentylmethyl-N-{(S)-1-[4-(2,4-difluoro-phenylamino)-piperidine-1-carbonyl]-2,2-dimethyl-propyl}-3-(formyl-hydroxy-amino)-propionamide], the minimal inhibitory concentration (MIC) in assay [1] (24 h) worked out at 0.05 mg/L (≈ 0.0957 µM); in assay [2] (24 h), 3.1 mg/L (≈ 5.93 µM); in assay [3] (24 h) it was 0.2 mg/L (≈ 0.383 µM); in the assay on Streptococcus pyogenes (24 h), 0.1 mg/L (≈ 0.191 µM); in assay [4] (24 h), 0.2 mg/L (≈ 0.383 µM).

Take `CC(C)(C)[C@H](NC(=O)[C@H](CC1CCCC1)CN(O)C=O)C(=O)N1CCC(NCc2ccc(F)cc2)CC1` [Example 4, (R)-2-Cyclopentylmethyl-N-{(S)-1-[4-(4-fluoro-benzylamino)-piperidine-1-carbonyl]-2,2-dimethyl-propyl}-3-(formyl-hydroxy-amino)-propionamide]: the MIC was 0.2 mg/L (≈ 0.386 µM) in assay [1] (setting [5]); 3.1 mg/L (≈ 5.98 µM) in assay [2] (setting [5]); 0.4 mg/L (≈ 0.771 µM) in assay [3] (setting [5]); 0.4 mg/L (≈ 0.771 µM) in the assay on Streptococcus pyogenes (setting [5]); 0.4 mg/L (≈ 0.771 µM) in assay [4] (setting [5]).

Turning to `CC(C)(C)[C@H](NC(=O)[C@H](CC1CCCC1)CN(O)C=O)C(=O)N1CCC(NCc2ccccn2)CC1` [Example 9, (R)-2-Cyclopentylmethyl-N-((S)-2,2-dimethyl-1-{4-[(pyridine-2-ylmethyl)-amino]-piperidine-1-carbonyl}-propyl)-3-(formyl-hydroxy-amino)-propionamide], the MIC was 1.6 mg/L (≈ 3.19 µM) in assay [1] (setting [5]); 12.5 mg/L (≈ 24.9 µM) in assay [2] (setting [5]); 12.5 mg/L (≈ 24.9 µM) in assay [3] (setting [5]); 0.8 mg/L (≈ 1.59 µM) in the assay on Streptococcus pyogenes (setting [5]); 1.6 mg/L (≈ 3.19 µM) in assay [4] (setting [5]).

In the case of `CC(C)(C)[C@H](NC(=O)[C@H](CC1CCCC1)CN(O)C=O)C(=O)N1CCC(Nc2ccc(C#N)cc2)CC1` [Example 16, (R)-N-{(S)-1-[4-(4-Cyano-phenylamino)-piperidine-1-carbonyl]-2,2-dimethyl-propyl}-2-cyclopentylmethyl-3-(formyl-hydroxy-amino)-propionamide], the MIC was determined as 0.1 mg/L (≈ 0.195 µM) in assay [1] (setting [5]); 3.1 mg/L (≈ 6.06 µM) in assay [2] (setting [5]); 0.4 mg/L (≈ 0.782 µM) in assay [3] (setting [5]); 0.1 mg/L (≈ 0.195 µM) with Streptococcus pyogenes (setting [5]); 1.6 mg/L (≈ 3.13 µM) in assay [4] (setting [5]).

Regarding `COc1ccc(CNC2CCN(C(=O)[C@@H](NC(=O)[C@H](CC3CCCC3)CN(O)C=O)C(C)(C)C)CC2)c(OC)c1` [Example 12, (R)-2-Cyclopentylmethyl-N-{(S)-1-[4-(2,4-dimethoxy-benzylamino)-piperidine-1-carbonyl]-2,2-dimethyl-propyl}-3-(formyl-hydroxy-amino)-propionamide], the MIC was found to be 0.2 mg/L (≈ 0.357 µM) in assay [1] (setting [5]); 6.3 mg/L (≈ 11.2 µM) in assay [2] (setting [5]); 3.1 mg/L (≈ 5.53 µM) in assay [3] (setting [5]); 0.2 mg/L (≈ 0.357 µM) with Streptococcus pyogenes (setting [5]); 0.8 mg/L (≈ 1.43 µM) in assay [4] (setting [5]).

As to `COC(=O)c1ccc(NC2CCN(C(=O)[C@@H](NC(=O)[C@H](CC3CCCC3)CN(O)C=O)C(C)(C)C)CC2)cc1` [Example 21, 4-(1-[(S)-2-[(R)-2-Cyclopentylmethyl-3-(formyl-hydroxy-amino)-propionylamino]-3,3-dimethyl-butyryl]-piperidin-4-ylamino)-benzoic acid methyl ester], the MIC was 0.2 mg/L (≈ 0.367 µM) in assay [1] (setting [5]); 6.3 mg/L (≈ 11.6 µM) in assay [2] (setting [5]); 1.6 mg/L (≈ 2.94 µM) in assay [3] (setting [5]); 0.4 mg/L (≈ 0.734 µM) in the assay on Streptococcus pyogenes (setting [5]); 0.8 mg/L (≈ 1.47 µM) in assay [4] (setting [5]).

Take `CC(=O)NC[C@H]1CN(c2ccc(N3CCOCC3)c(F)c2)C(=O)O1` [Linezolid, reference compound]: the MIC came to 0.8 mg/L (≈ 2.37 µM) in assay [1] (setting [5]); 0.8 mg/L (≈ 2.37 µM) in assay [2] (setting [5]); 1.6 mg/L (≈ 4.74 µM) in assay [3] (setting [5]); 0.8 mg/L (≈ 2.37 µM) in the assay on Streptococcus pyogenes (setting [5]); 0.8 mg/L (≈ 2.37 µM) in assay [4] (setting [5]).

As to `Cc1ccc(NC2CCN(C(=O)[C@@H](NC(=O)[C@H](CC3CCCC3)CN(O)C=O)C(C)(C)C)CC2)cc1` [Example 18, (R)-2-Cyclopentylmethyl-N-[(S)-2,2-dimethyl-1-(4-p-tolylamino-piperidine-1-carbonyl)-propyl]-3-(formyl-hydroxy-amino)-propionamide], the MIC was determined as 0.2 mg/L (≈ 0.399 µM) in assay [1] (setting [5]); 3.1 mg/L (≈ 6.19 µM) in assay [2] (setting [5]); 0.4 mg/L (≈ 0.799 µM) in assay [3] (setting [5]); 0.1 mg/L (≈ 0.2 µM) in the assay on Streptococcus pyogenes (setting [5]); 0.4 mg/L (≈ 0.799 µM) in assay [4] (setting [5]).

`CC(C)(C)[C@H](NC(=O)[C@H](CC1CCCC1)CN(O)C=O)C(=O)N1CCC(Nc2ccc(N3CCOCC3)c(F)c2)CC1` [Example 25, (R)-2-Cyclopentylmethyl-N-{(S)-1-[4-(3-fluoro-4-morpholin-4-yl-phenylamino)-piperidine-1-carbonyl]-2,2-dimethyl-propyl}-3-(formyl-hydroxy-amino)-propionamide]: the MIC in assay [1] (setting [5]) came out at 0.4 mg/L (≈ 0.678 µM); in assay [2] (setting [5]) it was 12.5 mg/L (≈ 21.2 µM); in assay [3] (setting [5]), 3.1 mg/L (≈ 5.26 µM); in the assay with Streptococcus pyogenes (setting [5]), 0.8 mg/L (≈ 1.36 µM); in assay [4] (setting [5]), 1.6 mg/L (≈ 2.71 µM).

As usually defined, the MIC is the lowest concentration found to suppress growth.
